Here are results for 22 compounds from PMC10353549 (ACS Pharmacology & Translational Science, 2023).

One may read the half-life as the time in which the quantity being followed falls by half. Broadly, the EC50 is the concentration needed to bring the measured effect to its halfway point. Read a low EC50 as greater potency. The term IC50 denotes the concentration at which inhibition is half-maximal. In general, amount remaining refers to what is left of the initial amount, in per cent. High values mean greater stability, low ones a greater loss.

A short description of data set [1]: Human liver S9 fraction stability. It counts as in vitro ADME. As to conditions: for half-life at 3 μM: human, pooled human liver S9 fraction.
The target of a further data set is GHSR (Homo sapiens, UniProt Q92847). Put plainly: cell-based.
For data set [2] the following is noted: human serum; cited from earlier work.
Data set [3] addresses T1, growth hormone secretagogue receptor 1a (GHSR) (Homo sapiens, UniProt Q92847). As to conditions: read-out: IC50 (GHSR affinity); previous work; cited from earlier work.
Target sequence in this assay (Q92847 whole entry, species assumed): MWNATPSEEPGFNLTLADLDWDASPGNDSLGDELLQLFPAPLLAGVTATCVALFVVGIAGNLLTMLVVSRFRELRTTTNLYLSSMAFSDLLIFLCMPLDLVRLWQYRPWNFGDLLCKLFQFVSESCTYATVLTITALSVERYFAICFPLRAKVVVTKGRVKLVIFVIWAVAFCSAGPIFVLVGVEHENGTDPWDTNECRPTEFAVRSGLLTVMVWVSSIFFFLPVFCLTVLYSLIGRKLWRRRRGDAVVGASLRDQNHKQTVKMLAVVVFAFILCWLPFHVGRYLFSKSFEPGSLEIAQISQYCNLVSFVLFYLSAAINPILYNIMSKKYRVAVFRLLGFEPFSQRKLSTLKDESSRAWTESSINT
Data set [4] deals with T1, growth hormone secretagogue receptor 1a (GHSR). Nature of the data set: biochemical.
Data set [5] is described as follows: Chemical stability in buffer. Format: physicochemical. Particulars: for chemical stability in buffer: 37 °C, over 24 h.
A further data set in a line: Human serum stability. Format: in vitro ADME.
A short description of data set [6]: human serum from human male AB plasma. As to conditions: 37 °C, up to 24 h.
Data set [7] addresses growth hormone secretagogue receptor 1a, eYFP tagged (GHSR-eYFP) (UniProt Q92847). Nature of the data set: radioligand binding.
The mark [8] stands for this setting: pH 7.4, S9 t1/2, pooled human liver S9 fraction 1 mg/mL, peptide 3 μM, 37 °C, over 4 h.
Where [9] appears, read: human liver S9 fraction, over 4 h.

Values joined by “and” are separate entries in the source; they are usually repeats but may differ in a detail not shown here. Equal values may be shown once. Read-outs that look alike come from different tables or passages of the source. Marks after values point to notes of the source that are not given here. Where a SMILES comes first, the peptide text is derived from it. [ ]: non-standard residue; d: D form. The star is where a group is joined. 1Nal = N[C@@H](Cc1cccc2ccccc12)C(=O)O; Nicotinoyl(6-F) = O=C(c1ccc(F)nc1)*; Cha = N[C@@H](CC1CCCCC1)C(=O)O; NMeS = CN[C@@H](CO)C(=O)O; hSer = N[C@@H](CCO)C(=O)O; Nle = CCCC[C@H](N)C(=O)O; Octanoyl = CCCCCCCC(=O)*; Abu = CC[C@H](N)C(=O)O; Dap = NC[C@H](N)C(=O)O; Inp = O=C(O)C1CCNCC1

GHSR, sequence (Q92847 whole entry, species assumed): as above
growth hormone secretagogue receptor 1a, eYFP tagged (GHSR-eYFP), sequence (Q92847 whole entry): as the sequence (Q92847 whole entry, species assumed) above

With `CC(C)C[C@H](NC(=O)[C@H](Cc1cccc2ccccc12)NC(=O)[C@H](CNC(=O)c1ccc(F)nc1)NC(=O)[C@H](CO)NC(=O)C1CCNCC1)C(=O)N[C@@H](CO)C(=O)N1CCC[C@H]1C(=O)N[C@H](C(N)=O)[C@@H](C)O` [compound 1, [Inp^1,Dpr^3(6-FN),1Nal^4,Thr^8]ghrelin(1–8) amide] (H-[Inp]S[Dap](Nicotinoyl(6-F))[1Nal]LSPT-NH2), the “time after which peptide was completely degraded in human liver S9 fraction” value in data set [1] (human liver S9 fraction, 37 °C) was determined as 4 h. This compound also showed a half-life at 3 μM in data set [1] (setting [8]) of 1.1 h. Besides, the “S9 t1/2” value in data set [1] (pooled human liver S9 fraction 1 mg/mL, peptide 3 μM, 37 °C, over 4 h) amounted to 1.08 h. Besides, the response on GHSR was half-maximal at 8 nM (EC50). Also, in [2], the “Serum t1/2” value is 4.7 ^a h. The IC50 in data set [3] is 0.11 nM; in data set [4] it was 0.09 nM. Moreover, in data set [5], the “chemical stability in buffer” value is listed as “chemically stable”. Besides, in [5] (phosphate-buffered saline, pH 7.4), the amount remaining at 24 h, 1 mM stood at 100%.
In [1] (pH 7.4), `CCCCCCCC(=O)NC[C@H](NC(=O)[C@H](CO)NC(=O)CN)C(=O)N[C@@H](Cc1ccccc1)C(=O)N[C@@H](CC(C)C)C(=O)N[C@@H](CO)C(=O)N1CCC[C@H]1C(=O)N[C@@H](CCC(=O)O)C(=O)O` [compound 2, [Dpr^3(n-octanoyl)]ghrelin(1–8)] (H-GS[Dap](Octanoyl)FLSPE-OH) had a half-life at 3 μM of 0.57 h. Also, the “Serum t1/2” value in “Human serum stability” (25% human serum in PBS pH 7.4, 37 °C, peptide 1 mM, over 24 h) came out at 2.0 h. Moreover, in “Human serum stability” (human serum, 37 °C), the “time after which peptide was completely degraded in human serum” value came out at 6 h. For the same compound, in data set [5], the “chemical stability in buffer” value was “chemically stable”.
On to `CC(C)C[C@@H](NC(=O)[C@H](Cc1cccc2ccccc12)NC(=O)[C@H](CNC(=O)c1ccc(F)nc1)NC(=O)[C@H](CO)NC(=O)C1CCNCC1)C(=O)N[C@@H](CO)C(=O)N1CCC[C@H]1C(=O)N[C@H](C(N)=O)[C@@H](C)O` [compound 9, Inp-S-Dpr(6-FN)-1Nal-lSPT-NH2] (H-[Inp]S[Dap](Nicotinoyl(6-F))[1Nal][dL]SPT-NH2), for which the “stability in human liver S9 fraction” value in data set [1] (setting [9]) is listed as “completely stable”. This compound also showed a half-life at 3 μM in [1] (setting [8]) of over 4 h. The “stability in human serum” value in the data set “Human serum stability” (human serum, over 24 h) was “completely stable”. Also, the IC50 in [4] came out at 56.5 ± 6.5 nM.
Regarding `CC(C)C[C@H](NC(=O)[C@H](Cc1cccc2ccccc12)NC(=O)[C@H](CNC(=O)c1ccc(F)nc1)NC(=O)[C@H](CO)NC(=O)C1CCNCC1)C(=O)N[C@H](CO)C(=O)N1CCC[C@H]1C(=O)N[C@H](C(N)=O)[C@@H](C)O` [compound 10, Inp-S-Dpr(6-FN)-1Nal-LsPT-NH2] (H-[Inp]S[Dap](Nicotinoyl(6-F))[1Nal]L[dS]PT-NH2), in [1] (setting [8]), the half-life at 3 μM is over 4 h. In addition, in data set [4], 3.55 ± 0.25 nM corresponded to half-maximal inhibition (IC50).
The like results for `CC(C)C[C@H](NC(=O)[C@H](Cc1cccc2ccccc12)NC(=O)[C@H](CNC(=O)c1ccc(F)nc1)NC(=O)[C@H](CO)NC(=O)C1CCNCC1)C(=O)N[C@@H](C(=O)N1CCC[C@H]1C(=O)N[C@H](C(N)=O)[C@@H](C)O)[C@H](C)O` [compound 12, Inp-S-Dpr(6-FN)-1Nal-LtPT-NH2] (H-[Inp]S[Dap](Nicotinoyl(6-F))[1Nal]L[dT]PT-NH2) were, in that order, over 4 h and 2.52 ± 0.32 nM.
`CCCC[C@H](NC(=O)[C@H](Cc1cccc2ccccc12)NC(=O)[C@H](CNC(=O)c1ccc(F)nc1)NC(=O)[C@H](CO)NC(=O)C1CCNCC1)C(=O)N[C@@H](CO)C(=O)N1CCC[C@H]1C(=O)N[C@H](C(N)=O)[C@@H](C)O` [compound 13, Inp-S-Dpr(6-FN)-1Nal-Nle-SPT-NH2] (H-[Inp]S[Dap](Nicotinoyl(6-F))[1Nal][Nle]SPT-NH2): the half-life at 3 μM in data set [1] (setting [8]) is 0.55 h. This compound also showed an IC50 in data set [4] of 1.5 ± 0.27 nM.
In the same order, the values of `C[C@@H](O)[C@H](NC(=O)[C@@H]1CCCN1C(=O)[C@H](CO)NC(=O)[C@H](CC1CCCCC1)NC(=O)[C@H](Cc1cccc2ccccc12)NC(=O)[C@H](CNC(=O)c1ccc(F)nc1)NC(=O)[C@H](CO)NC(=O)C1CCNCC1)C(N)=O` [compound 14, Inp-S-Dpr(6-FN)-1Nal-Cha-SPT-NH2] (H-[Inp]S[Dap](Nicotinoyl(6-F))[1Nal][Cha]SPT-NH2) are 1.18 h and 1.88 ± 0.67 nM.
In the same order, the values of `CC(C)C[C@H](NC(=O)[C@H](Cc1cccc2ccccc12)NC(=O)[C@H](CNC(=O)c1ccc(F)nc1)NC(=O)[C@H](CO)NC(=O)C1CCNCC1)C(=O)N[C@@H](CS)C(=O)N1CCC[C@H]1C(=O)N[C@H](C(N)=O)[C@@H](C)O` [compound 15, Inp-S-Dpr(6-FN)-1Nal-LCPT-NH2] (H-[Inp]S[Dap](Nicotinoyl(6-F))[1Nal]LCPT-NH2) are 0.95 h and 7.15 ± 0.18 nM.
The like results for `CC(C)C[C@H](NC(=O)[C@H](Cc1cccc2ccccc12)NC(=O)[C@H](CNC(=O)c1ccc(F)nc1)NC(=O)[C@H](CO)NC(=O)C1CCNCC1)C(=O)N[C@H](C(=O)N1CCC[C@H]1C(=O)N[C@H](C(N)=O)[C@@H](C)O)[C@@H](C)O` [compound 16, Inp-S-Dpr(6-FN)-1Nal-LTPT-NH2] (H-[Inp]S[Dap](Nicotinoyl(6-F))[1Nal]LTPT-NH2) were, in that order, 1.25 h and 0.62 ± 0.1 nM.
The compound `CC(C)C[C@H](NC(=O)[C@H](Cc1cccc2ccccc12)NC(=O)[C@H](CNC(=O)c1ccc(F)nc1)NC(=O)[C@H](CO)NC(=O)C1CCNCC1)C(=O)N[C@@H](CCO)C(=O)N1CCC[C@H]1C(=O)N[C@H](C(N)=O)[C@@H](C)O` [compound 17, Inp-S-Dpr(6-FN)-1Nal-L-Hse-PT-NH2] (H-[Inp]S[Dap](Nicotinoyl(6-F))[1Nal]L[hSer]PT-NH2) gave a half-life at 3 μM in [1] (setting [8]) of 1.4 h. Besides, it took 1.43 ± 0.08 nM to reach half-maximal inhibition in [4] (IC50).
The like results for `CC(C)C[C@H](NC(=O)[C@H](Cc1cccc2ccccc12)NC(=O)[C@H](CNC(=O)c1ccc(F)nc1)NC(=O)[C@H](CO)NC(=O)C1CCNCC1)C(=O)N[C@@H](CC(N)=O)C(=O)N1CCC[C@H]1C(=O)N[C@H](C(N)=O)[C@@H](C)O` [compound 18, Inp-S-Dpr(6-FN)-1Nal-LNPT-NH2] (H-[Inp]S[Dap](Nicotinoyl(6-F))[1Nal]LNPT-NH2) were, in that order, over 4 h and 1.9 ± 0.56 nM.
In the same order, the values of `CC(C)C[C@H](NC(=O)[C@H](Cc1cccc2ccccc12)NC(=O)[C@H](CNC(=O)c1ccc(F)nc1)NC(=O)[C@H](CO)NC(=O)C1CCNCC1)C(=O)N[C@@H](CCC(N)=O)C(=O)N1CCC[C@H]1C(=O)N[C@H](C(N)=O)[C@@H](C)O` [compound 19, Inp-S-Dpr(6-FN)-1Nal-LQPT-NH2] (H-[Inp]S[Dap](Nicotinoyl(6-F))[1Nal]LQPT-NH2) are 2.03 h and 1.21 ± 0.12 nM.
As to `CC[C@H](NC(=O)[C@H](CC(C)C)NC(=O)[C@H](Cc1cccc2ccccc12)NC(=O)[C@H](CNC(=O)c1ccc(F)nc1)NC(=O)[C@H](CO)NC(=O)C1CCNCC1)C(=O)N1CCC[C@H]1C(=O)N[C@H](C(N)=O)[C@@H](C)O` [compound 20, Inp-S-Dpr(6-FN)-1Nal-L-Abu-PT-NH2] (H-[Inp]S[Dap](Nicotinoyl(6-F))[1Nal]L[Abu]PT-NH2), the half-life at 3 μM in [1] (setting [8]) was 0.46 h. At GHSR, this compound registered an EC50 of 30 nM. Moreover, the IC50 in data set [4] amounted to 2.54 ± 0.65 nM.
In the case of `CC(C)C[C@H](NC(=O)[C@H](Cc1cccc2ccccc12)NC(=O)[C@H](CNC(=O)c1ccc(F)nc1)NC(=O)[C@H](CO)NC(=O)C1CCNCC1)C(=O)N(C)[C@@H](CO)C(=O)N1CCC[C@H]1C(=O)N[C@H](C(N)=O)[C@@H](C)O` [compound 22, Inp-S-Dpr(6-FN)-1Nal-L-S(N-Me)-PT-NH2] (H-[Inp]S[Dap](Nicotinoyl(6-F))[1Nal]L[NMeS]PT-NH2), the “stability in human liver S9 fraction” value in data set [1] (setting [9]) is listed as “stable”. The same compound returned a half-life at 3 μM in data set [1] (setting [8]) of over 4 h. A half-maximal effect on GHSR (EC50) was put at 119 nM. Moreover, the “stability in human serum” value in “Human serum stability” (human serum, over 24 h) was “stable”. In addition, in [4], half-maximal inhibition (IC50) was put at 1.32 ± 0.58 nM.
For Inp-S-Dpr(6-FN)-1Nal-L-Dpr-PT-NH2, the not cleaved result in data set [6] was “full stability over 24 h”.
Consider Inp-S-Dpr(6-FN)-1Nal-L-S(N-Me)-PT-NH2, for which, in [6], the not cleaved entry is reported as “stable; serum t1/2 >24 h”.
Inp-S-Dpr(6-FN)-1Nal-LSPT-NH2: in data set [6], the cleaved bond entry is “Leu5-Ser6, first_seen, 30 min”; the fragment found was 4; 1Nal-L-OH and 5; Inp-S-Dpr(6-FNA)-OH.
On to Inp-S-Dpr(6-FN)-1Nal-lSPT-NH2, for which the not cleaved entry in data set [6] is listed as “completely stable; serum t1/2 >24 h”.
acylated human ghrelin(1–28) (ligand) yielded a 50% inhibitory concentration (IC50) in [7] of 2.48 nM.
As for “ghrelin(1–8) analogue 11, Inp-S-Dpr(6-FN)-1Nal-lsPT-NH2 (peptide)”, in data set [7], the IC50 came out at 11.5 nM.
In [7], “ghrelin(1–8) analogue 21, Inp-S-Dpr(6-FN)-1Nal-L-Dpr-PT-NH2 (peptide)” returned an IC50 of 0.32 nM.
Same read-out and setting: as for “ghrelin(1–8) analogue 23, Inp-S-Dpr(6-FN)-1Nal-β-homoL-SPT-NH2 (peptide)”, the figure is 2.11 nM.
